What was measured:
MM.1S myeloma cells = assay: Mouse xenograft model of myeloma; format: in vivo, mice; conditions: subcutaneous myeloma xenograft; intravenous; bortezomib 0.5 mg/kg, DT97 10 mg/kg
Procedure: Five week old nude mice flanks are injected subcutaneously with MM.1S myeloma cells. Tumors formed within two weeks and mice were then treated intravenously with vehicle, bortezomib, DT97 or both bortezomib and DT97.
Subcutaneous tumors were generated after injection of myeloma cells. […] Vehicle or bortezomib was administered on days 1, 4, 8 and 11. Mice were euthanized when tumors reached 2 cm^3, became ulcerated or elicited neurologic or musculoskeletal complications that limited mobility and feeding. Survival and tumor growth were evaluated from the first day of treatment. Shown is the average of replicate measurements. […] Kaplan-Meier survival curves comparison of NOD. SCID mice after subcutaneous injection of parental myeloma cells treated with vehicle, DT97, bortezomib or both.
Mice received intravenous injection of either vehicle (PBS in 10% DMSO); bortezomib (0.5 mg/kg), DT97 (10 mg/kg) or both bortezomib and DT97. Tumor volume (TV) measurements were made using a vernier caliper and calculated using the formula: TV = 0.5 (a × b^2) where a is the long diameter and b the short diameter. Mice were euthanized when tumors reached 2 cm^3, became ulcerated or elicited neurologic or musculoskeletal complications that limited mobility and feeding.
In vivo statistical tests were performed using the 2-tailed Student t test.

p110-γ = p110-γ (Homo sapiens, UniProt P48736); set-up: method as in PMID 20959606; key to the marks not given beside the values; conditions: Class I PI3Ks; cited from earlier work
CLL cells = assay: XTT viability, CLL cells (DT97 vs idelalisib); format: cell-based; conditions: 1 uM, 72 h, XTT assay
PKCγ = test system: PKCγ; set-up: method as in PMID 20959606; conditions: cited from earlier work
ERBB4 = ERBB4 (Homo sapiens, UniProt Q15303); set-up: method as in PMID 20959606; conditions: Other Clinically-relevant Kinases; cited from earlier work
p110-α = p110-α (Homo sapiens, UniProt P42336); set-up: method as in PMID 20959606; conditions: Class I PI3Ks; cited from earlier work
p110-δ = p110-δ (Homo sapiens, UniProt O00329); set-up: method as in PMID 20959606; key to the marks not given beside the values; conditions: Class I PI3Ks; cited from earlier work
PKC2-α = PKC2-α (Homo sapiens, UniProt O00443); set-up: method as in PMID 20959606; conditions: Class II PI3Ks; cited from earlier work
ERBB2 = ERBB2 (Homo sapiens, UniProt P04626); set-up: method as in PMID 20959606; conditions: Other Clinically-relevant Kinases; cited from earlier work
p110-β = p110-β (Homo sapiens, UniProt P42338); set-up: method as in PMID 20959606; conditions: Class I PI3Ks; cited from earlier work
PDGFR = test system: PDGFR; set-up: method as in PMID 20959606; conditions: Other Clinically-relevant Kinases; cited from earlier work

Sequence of PKC2-α (O00443 whole entry): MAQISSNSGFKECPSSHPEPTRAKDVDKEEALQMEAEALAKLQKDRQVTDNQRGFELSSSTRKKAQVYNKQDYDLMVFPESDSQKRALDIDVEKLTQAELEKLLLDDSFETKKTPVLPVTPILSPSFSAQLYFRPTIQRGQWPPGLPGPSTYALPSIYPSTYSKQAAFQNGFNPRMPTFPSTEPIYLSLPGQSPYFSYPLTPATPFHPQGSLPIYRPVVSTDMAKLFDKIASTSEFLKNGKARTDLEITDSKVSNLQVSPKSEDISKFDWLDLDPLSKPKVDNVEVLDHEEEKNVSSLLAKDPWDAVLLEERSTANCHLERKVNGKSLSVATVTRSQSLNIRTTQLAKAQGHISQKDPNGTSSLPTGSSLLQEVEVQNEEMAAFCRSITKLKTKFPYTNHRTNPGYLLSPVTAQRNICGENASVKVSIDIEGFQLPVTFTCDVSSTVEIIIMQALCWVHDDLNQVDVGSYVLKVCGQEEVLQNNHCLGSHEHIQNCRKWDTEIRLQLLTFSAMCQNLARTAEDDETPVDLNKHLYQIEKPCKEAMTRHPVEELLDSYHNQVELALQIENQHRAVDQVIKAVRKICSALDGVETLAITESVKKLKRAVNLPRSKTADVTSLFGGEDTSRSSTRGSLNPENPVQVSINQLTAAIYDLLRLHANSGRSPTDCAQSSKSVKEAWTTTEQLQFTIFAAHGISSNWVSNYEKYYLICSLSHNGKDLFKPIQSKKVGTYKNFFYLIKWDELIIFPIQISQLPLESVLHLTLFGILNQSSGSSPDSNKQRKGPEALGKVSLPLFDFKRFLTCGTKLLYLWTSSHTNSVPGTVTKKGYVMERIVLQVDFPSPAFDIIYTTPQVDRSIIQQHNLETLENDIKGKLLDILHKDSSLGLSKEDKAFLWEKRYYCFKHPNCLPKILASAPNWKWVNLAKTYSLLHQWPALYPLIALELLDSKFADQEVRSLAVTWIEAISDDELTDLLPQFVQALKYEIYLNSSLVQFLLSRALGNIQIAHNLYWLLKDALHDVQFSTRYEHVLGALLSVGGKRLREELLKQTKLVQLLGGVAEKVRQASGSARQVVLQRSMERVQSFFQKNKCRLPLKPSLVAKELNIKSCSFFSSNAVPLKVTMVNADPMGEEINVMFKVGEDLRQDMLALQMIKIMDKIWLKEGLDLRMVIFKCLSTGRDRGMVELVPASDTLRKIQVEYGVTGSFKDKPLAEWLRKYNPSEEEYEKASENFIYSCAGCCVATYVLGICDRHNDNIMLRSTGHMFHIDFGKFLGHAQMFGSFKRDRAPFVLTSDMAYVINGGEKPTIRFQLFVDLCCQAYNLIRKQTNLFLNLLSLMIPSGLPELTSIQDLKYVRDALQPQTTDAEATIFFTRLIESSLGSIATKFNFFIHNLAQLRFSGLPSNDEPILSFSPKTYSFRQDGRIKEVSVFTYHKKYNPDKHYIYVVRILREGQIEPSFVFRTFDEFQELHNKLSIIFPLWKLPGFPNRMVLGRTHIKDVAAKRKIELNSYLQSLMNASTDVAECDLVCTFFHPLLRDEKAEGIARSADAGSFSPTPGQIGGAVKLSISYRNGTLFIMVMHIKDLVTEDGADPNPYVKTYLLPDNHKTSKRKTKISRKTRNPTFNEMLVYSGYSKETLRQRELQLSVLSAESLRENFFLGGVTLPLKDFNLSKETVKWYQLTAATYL
Sequence of p110-α (P42336 whole entry): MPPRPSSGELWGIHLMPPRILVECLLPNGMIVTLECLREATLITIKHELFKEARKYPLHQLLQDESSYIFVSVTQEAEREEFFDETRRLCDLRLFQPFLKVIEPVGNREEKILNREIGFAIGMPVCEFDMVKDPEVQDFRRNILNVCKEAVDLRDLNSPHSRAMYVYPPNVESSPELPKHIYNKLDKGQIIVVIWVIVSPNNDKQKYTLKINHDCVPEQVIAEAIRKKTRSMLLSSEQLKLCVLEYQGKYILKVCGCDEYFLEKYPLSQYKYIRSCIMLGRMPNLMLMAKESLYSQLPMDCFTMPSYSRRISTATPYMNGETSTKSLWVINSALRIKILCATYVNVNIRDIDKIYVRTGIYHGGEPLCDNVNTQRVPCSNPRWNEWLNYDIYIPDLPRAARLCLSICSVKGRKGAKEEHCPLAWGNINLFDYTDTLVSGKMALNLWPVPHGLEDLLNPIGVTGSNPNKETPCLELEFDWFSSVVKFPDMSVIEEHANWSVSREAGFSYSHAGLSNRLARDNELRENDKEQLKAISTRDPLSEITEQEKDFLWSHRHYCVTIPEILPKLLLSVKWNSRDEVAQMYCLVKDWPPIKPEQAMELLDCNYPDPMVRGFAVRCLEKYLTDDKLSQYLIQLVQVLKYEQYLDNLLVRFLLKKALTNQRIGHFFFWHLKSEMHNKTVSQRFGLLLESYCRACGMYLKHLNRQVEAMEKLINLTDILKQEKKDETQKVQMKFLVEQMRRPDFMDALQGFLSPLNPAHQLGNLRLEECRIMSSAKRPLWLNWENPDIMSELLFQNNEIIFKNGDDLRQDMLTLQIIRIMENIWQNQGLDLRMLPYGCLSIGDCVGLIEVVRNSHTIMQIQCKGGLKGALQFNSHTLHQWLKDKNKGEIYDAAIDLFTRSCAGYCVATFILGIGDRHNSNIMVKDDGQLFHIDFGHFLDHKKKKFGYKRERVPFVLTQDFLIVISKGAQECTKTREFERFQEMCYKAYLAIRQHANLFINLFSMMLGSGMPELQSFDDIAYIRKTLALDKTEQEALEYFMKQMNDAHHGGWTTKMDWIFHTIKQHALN
Sequence of p110-α (P27986 whole entry partner): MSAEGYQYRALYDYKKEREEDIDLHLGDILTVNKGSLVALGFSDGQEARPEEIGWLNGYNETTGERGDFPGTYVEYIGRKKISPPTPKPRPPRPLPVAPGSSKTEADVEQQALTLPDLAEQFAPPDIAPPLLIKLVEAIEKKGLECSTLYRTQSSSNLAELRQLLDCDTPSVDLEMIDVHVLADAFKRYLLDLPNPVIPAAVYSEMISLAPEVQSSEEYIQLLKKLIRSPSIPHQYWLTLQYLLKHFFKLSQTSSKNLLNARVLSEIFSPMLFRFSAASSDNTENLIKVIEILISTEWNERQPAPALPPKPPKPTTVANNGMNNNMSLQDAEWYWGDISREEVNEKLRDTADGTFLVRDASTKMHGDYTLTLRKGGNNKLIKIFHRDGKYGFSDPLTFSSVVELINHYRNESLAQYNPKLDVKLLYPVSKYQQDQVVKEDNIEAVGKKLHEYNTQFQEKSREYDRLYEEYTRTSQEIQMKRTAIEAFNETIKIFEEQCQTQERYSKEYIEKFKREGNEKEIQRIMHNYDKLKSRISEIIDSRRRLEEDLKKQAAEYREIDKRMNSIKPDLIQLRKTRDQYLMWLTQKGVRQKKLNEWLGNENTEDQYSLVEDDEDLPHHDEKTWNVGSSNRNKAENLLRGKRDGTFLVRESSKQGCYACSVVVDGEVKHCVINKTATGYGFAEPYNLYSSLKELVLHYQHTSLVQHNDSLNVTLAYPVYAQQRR
Sequence of p110-γ (P48736 whole entry): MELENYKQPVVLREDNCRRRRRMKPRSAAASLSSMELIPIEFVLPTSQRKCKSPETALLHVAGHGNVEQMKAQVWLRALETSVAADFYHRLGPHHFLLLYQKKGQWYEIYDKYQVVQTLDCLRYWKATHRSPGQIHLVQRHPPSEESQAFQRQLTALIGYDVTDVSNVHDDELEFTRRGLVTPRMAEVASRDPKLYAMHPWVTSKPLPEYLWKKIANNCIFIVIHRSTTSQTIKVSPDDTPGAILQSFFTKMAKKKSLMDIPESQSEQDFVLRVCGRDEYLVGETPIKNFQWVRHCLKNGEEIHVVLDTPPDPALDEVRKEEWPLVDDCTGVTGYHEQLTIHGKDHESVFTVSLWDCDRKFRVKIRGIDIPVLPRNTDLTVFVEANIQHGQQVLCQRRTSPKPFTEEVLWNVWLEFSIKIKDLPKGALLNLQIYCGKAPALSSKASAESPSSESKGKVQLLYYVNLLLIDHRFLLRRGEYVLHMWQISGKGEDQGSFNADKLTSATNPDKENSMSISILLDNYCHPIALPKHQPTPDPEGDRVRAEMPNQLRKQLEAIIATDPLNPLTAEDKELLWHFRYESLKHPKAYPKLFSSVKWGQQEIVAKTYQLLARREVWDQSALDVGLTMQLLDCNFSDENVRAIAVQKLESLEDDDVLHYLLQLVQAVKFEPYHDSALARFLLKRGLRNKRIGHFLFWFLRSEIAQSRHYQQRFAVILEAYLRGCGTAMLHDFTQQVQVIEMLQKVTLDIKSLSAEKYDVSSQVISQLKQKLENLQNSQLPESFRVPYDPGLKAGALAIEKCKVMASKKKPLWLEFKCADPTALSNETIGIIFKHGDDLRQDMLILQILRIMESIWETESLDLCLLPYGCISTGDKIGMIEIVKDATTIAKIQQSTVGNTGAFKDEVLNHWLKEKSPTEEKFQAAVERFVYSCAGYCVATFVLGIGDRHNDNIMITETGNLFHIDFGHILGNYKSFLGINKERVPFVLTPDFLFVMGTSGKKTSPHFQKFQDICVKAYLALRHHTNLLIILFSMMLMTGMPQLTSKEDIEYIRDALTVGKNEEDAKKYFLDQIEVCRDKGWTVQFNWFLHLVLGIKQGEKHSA

Structure (SMILES) | overall survival (OS) (MM.1S myeloma cells) [days] | tumor growth (MM.1S myeloma cells) | Inhibitory profile (kinase inhibition) (p110-γ) | viability (CLL cells) | Inhibitory profile (kinase inhibition) (PKCγ) | Inhibitory profile (kinase inhibition) (ERBB4) | Inhibitory profile (kinase inhibition) (p110-α) | Inhibitory profile (kinase inhibition) (p110-δ) | Inhibitory profile (kinase inhibition) (PKC2-α) | Inhibitory profile (kinase inhibition) (ERBB2) | Inhibitory profile (kinase inhibition) (p110-β) | Inhibitory profile (kinase inhibition) (PDGFR)
CC(C)C[C@H](NC(=O)[C@H](Cc1ccccc1)NC(=O)c1cnccn1)B(O)O [bortezomib] | 20 | dramatically reduced tumor growth | – | – | – | – | – | – | – | – | – | –
CC[C@H](Nc1ncnc2[nH]cnc12)c1nc2cccc(F)c2c(=O)n1-c1ccccc1 [Idelalisib, idelalisib] | – | – | ++ | more effectively reduced the viability | none | none | + | +++ | none | none | + | none

— paper PMC5122408, “High throughput chemical library screening identifies a novel p110-δ inhibitor that potentiates the anti-myeloma effect of bortezomib” (Oncotarget, 2016)
